Data reported in ChEMBL document CHEMBL4765407, “Design, synthesis and high antitumor potential of new unsymmetrical bisacridine derivatives towards human solid tumors, specifically pancreatic cancers and their unique ability to stabilize DNA G-quadruplexes” (Eur J Med Chem, 2020).

Columns and labels:
NCI-H460 [1] = experiment: Antitumour activity against human NCI-H460 cells xenografted in Crl:Nu-Foxnl nu mouse assessed as inhibition of tumour growth at total effective dose of 30 mg/kg, ip measured on day 14; format: functional; settings: 336 h, time 14 day, read-out: TGI
NCI-H460 [2] = experiment: Cytotoxicity against human NCI-H460 cells assessed as reduction in cell viability measured after 72 hrs by SRB assay; format: functional, cell-based; settings: NCI-H460, 72 h
MDA-MB-231 [3] = experiment: Cytotoxicity against human MDA-MB-231 cells assessed as reduction in cell viability measured after 72 hrs by SRB assay; format: functional, cell-based; settings: MDA-MB-231, 72 h
DU-145 [4] = experiment: Antitumour activity against human DU-145 cells xenografted in Crl:Nu-Foxnl nu mouse assessed as inhibition of tumour growth at total effective dose of 48 mg/kg, ip measured on day 35; format: functional; settings: DU-145, ip, 840 h, time 35 day, read-out: TGI
HT-29 = experiment: Cytotoxicity against human HT-29 cells assessed as reduction in cell viability measured after 72 hrs by SRB assay; format: functional, cell-based; settings: HT-29, 72 h
MIA PaCa-2 = experiment: Cytotoxicity against human MIA PaCa-2 cells assessed as reduction in cell viability measured after 72 hrs by SRB assay; format: functional, cell-based; settings: MIA PaCa-2, 72 h
DU-145 [5] = experiment: Cytotoxicity against human DU-145 cells assessed as reduction in cell viability measured after 72 hrs by SRB assay; format: functional, cell-based; settings: DU-145, 72 h
LNCaP = experiment: Cytotoxicity against human LNCaP cells assessed as reduction in cell viability measured after 72 hrs by SRB assay; format: functional, cell-based
HCT-116 [6] = experiment: Cytotoxicity against human HCT-116 cells assessed as reduction in cell viability measured after 72 hrs by SRB assay; format: functional, cell-based; settings: HCT-116, 72 h
W256 [7] = experiment: Antitumour activity against Walker 256 adenocarcinoma cells implanted in Wistar rat assessed as increase in animal survival rate by measuring T/C ratio at 6.25 mg/kg, ip qd for 3 days administered on day 3,4,5 after tumor cell transplantation; format: functional; settings: time 3 day
Quadruplex DNA [8] = experiment: Stabilization of 5'-FAM/3'-TAMRA labeled telomeric G4 quadruplex DNA F21T (unknown origin) assessed as change in melting temperature at 10 microM measured after 15 mins by FRET assay; format: nucleic-acid assay
PANC-1 [9] = experiment: Antitumour activity against human PANC-1 cells xenografted in Crl:Nu-Foxnl nu mouse assessed as inhibition of tumour growth at total effective dose of 160 mg/kg, iv measured on day 26; format: functional; settings: PANC-1, iv, 624 h, time 26 day, read-out: TGI
ASPC1 = experiment: Cytotoxicity against human ASPC1 cells assessed as reduction in cell viability measured after 72 hrs by SRB assay; format: functional, cell-based; settings: ASPC1, 72 h
Quadruplex DNA [10] = experiment: Stabilization of 5'-FAM/3'-TAMRA labeled c-Myc promoter G4 quadruplex DNA FPu18 (unknown origin) assessed as change in melting temperature at 10 microM measured after 15 mins by FRET assay; format: nucleic-acid assay
[11] = Stabilization of ds 5'-FAM-d(TATAGCTATA-HEG-TATAGCTATA)-TAMRA-3' (unknown origin) assessed as change in melting temperature at 10 microM measured after 15 mins by FRET assay; settings: Homo sapiens
HCT-116 [12] = experiment: Antitumour activity against human HCT-116 cells xenografted in Crl:Nu-Foxnl nu mouse assessed as inhibition of tumour growth at total effective dose of 120 mg/kg, iv measured on day 15; format: functional; settings: HCT-116, iv, 360 h, time 15 day, read-out: TGI
Capan-2 = experiment: Cytotoxicity against human Capan-2 cells assessed as reduction in cell viability measured after 72 hrs by SRB assay; format: functional, cell-based; settings: Capan-2, 72 h
BXPC-3 = experiment: Cytotoxicity against human BXPC-3 cells assessed as reduction in cell viability measured after 72 hrs by SRB assay; format: functional, cell-based; settings: BXPC-3, 72 h
MDA-MB-231 [13] = experiment: Antitumour activity against human MDA-MB-231 cells xenografted in Crl:Nu-Foxnl nu mouse assessed as inhibition of tumour growth at total effective dose of 40 mg/kg, iv measured on day 39; format: functional; settings: MDA-MB-231, iv, 936 h, time 39 day, read-out: TGI
MCF7 = experiment: Cytotoxicity against human MCF7 cells assessed as reduction in cell viability measured after 72 hrs by SRB assay; format: functional, cell-based; settings: MCF7, 72 h
PC-3 [14] = experiment: Cytotoxicity against human PC-3 cells assessed as reduction in cell viability measured after 72 hrs by SRB assay; format: functional, cell-based; settings: PC-3, 72 h
Quadruplex DNA [15] = experiment: Stabilization of 5'-FAM/3'-TAMRA labeled K-Ras G4 quadruplex DNA (unknown origin) assessed as change in melting temperature at 10 microM measured after 15 mins by FRET assay; format: nucleic-acid assay
PANC-1 [16] = experiment: Cytotoxicity against human PANC-1 cells assessed as reduction in cell viability measured after 72 hrs by SRB assay; format: functional, cell-based; settings: PANC-1, 72 h
UMUC3 = experiment: Cytotoxicity against human UMUC3 cells assessed as reduction in cell viability measured after 72 hrs by SRB assay; format: functional, cell-based; settings: UMUC3, 72 h
W256 [17] = experiment: Antitumour activity against Walker 256 adenocarcinoma cells implanted in Wistar rat assessed as increase in animal survival rate by measuring T/C ratio at 20 mg/kg, ip qd for 3 days administered on day 3,4,5 after tumor cell transplantation; format: functional; settings: time 3 day
NCI-H460 [18] = experiment: Antitumour activity against human NCI-H460 cells xenografted in Crl:Nu-Foxnl nu mouse assessed as inhibition of tumour growth at total effective dose of 60 mg/kg, iv measured on day 17; format: functional; settings: 408 h, time 17 day, read-out: TGI
PC-3 [19] = experiment: Antitumour activity against human PC-3 cells xenografted in Crl:Nu-Foxnl nu mouse assessed as inhibition of tumour growth at total effective dose of 8 mg/kg, iv measured on day 39; format: functional; settings: PC-3, iv, 936 h, time 39 day, read-out: TGI
PANC-1 [20] = experiment: Antitumour activity against human PANC-1 cells xenografted in Crl:Nu-Foxnl nu mouse assessed as inhibition of tumour growth at total effective dose of 10 mg/kg, iv measured on day 37; format: functional; settings: PANC-1, iv, 888 h, time 37 day, read-out: TGI
PANC-1 [21] = experiment: Antitumour activity against human PANC-1 cells xenografted in Crl:Nu-Foxnl nu mouse assessed as inhibition of tumour growth at total effective dose of 30 mg/kg, iv measured on day 45; format: functional; settings: PANC-1, iv, 1080 h, time 45 day, read-out: TGI
W256 [22] = experiment: Antitumour activity against Walker 256 adenocarcinoma cells implanted in Wistar rat assessed as increase in animal survival rate by measuring T/C ratio at 5 mg/kg, ip qd for 3 days administered on day 3,4,5 after tumor cell transplantation; format: functional; settings: time 3 day
NCI-H460 [23] = experiment: Antitumour activity against human NCI-H460 cells xenografted in Crl:Nu-Foxnl nu mouse assessed as inhibition of tumour growth at total effective dose of 60 mg/kg, ip measured on day 14; format: functional; settings: 336 h, time 14 day, read-out: TGI

SMILES | IC50 (NCI-H460 [2]) | IC50 (MDA-MB-231 [3]) | IC50 (HT-29) | IC50 (MIA PaCa-2) | IC50 (DU-145 [5]) | IC50 (LNCaP) | IC50 (HCT-116 [6]) | ΔTm (Quadruplex DNA [8]) | ΔTm (Quadruplex DNA [10]) | ΔTm [11] | IC50 (PC-3 [14]) | ΔTm (Quadruplex DNA [15]) | IC50 (PANC-1 [16]) | IC50 (UMUC3) | also measured
Cc1ccc([N+](=O)[O-])c2c(NCCCN3CCN(CCCNc4ccc(C)c5[nH]c6ccc(O)cc6c(=O)c45)CC3)c3ccccc3nc12 | 0.04 µM | 0.048 µM | 0.061 µM | 0.067 µM | 0.046 µM | 0.3 µM | 0.047 µM |  |  |  |  |  |  |  | inhibition in vivo at 30 mg/kg (NCI-H460 [1]): 6%; inhibition in vivo at 48 mg/kg (DU-145 [4]): 25%; T/C (W256 [7]): 300%
Cc1ccc([N+](=O)[O-])c2c(NCCCN3CCN(CCCNc4ccc5ncn6c7ccc(O)cc7c(=O)c4c56)CC3)c3ccccc3nc12 | 0.074 µM | 0.017 µM | 0.237 µM | 0.038 µM | 0.067 µM |  | 0.051 µM | 16.4 °C | 21.3 °C | 4.4 °C | 0.13 µM | 18.8 °C | 0.042 µM | 0.035 µM | inhibition in vivo at 160 mg/kg (PANC-1 [9]): 61%; IC50 (ASPC1): 0.343 µM; inhibition in vivo at 120 mg/kg (HCT-116 [12]): 4%; IC50 (Capan-2): 0.068 µM; IC50 (BXPC-3): 0.354 µM; inhibition in vivo at 40 mg/kg (MDA-MB-231 [13]): 12%; IC50 (MCF7): 0.244 µM
Cc1ccc([N+](=O)[O-])c2c(NCCCN3CCN(CCCNc4ccc([N+](=O)[O-])c5[nH]c6ccccc6c(=O)c45)CC3)c3ccccc3nc12 | 0.04 µM |  |  | 0.108 µM | 0.041 µM |  | 0.083 µM | 8.7 °C | 19.4 °C | 2.6 °C | 0.362 µM | 21.6 °C | 0.13 µM | 0.063 µM | T/C (W256 [17]): 550%; inhibition in vivo at 60 mg/kg (NCI-H460 [18]): 24%; inhibition in vivo at 8 mg/kg (PC-3 [19]): 30%; inhibition in vivo at 10 mg/kg (PANC-1 [20]): 27%; inhibition in vivo at 30 mg/kg (PANC-1 [21]): 72%
Cc1ccc([N+](=O)[O-])c2c(NCCCNCCCNc3ccc(C)c4[nH]c5ccccc5c(=O)c34)c3ccccc3nc12 | 0.067 µM |  | 1.3 µM |  | 0.129 µM | 0.213 µM | 0.085 µM |  |  |  |  |  | 0.162 µM | 0.105 µM | T/C (W256 [22]): 1300%; inhibition in vivo at 60 mg/kg (NCI-H460 [23]): 25%
